Laboratory results reported in ChEMBL document CHEMBL6103650, “Hybrid Molecules of Benzothiazole and Hydroxamic Acid as Dual-Acting Biofilm Inhibitors with Antibacterial Synergistic Effect against Pseudomonas aeruginosa Infections” (J Med Chem, 2025).

What was measured:
Pseudomonas aeruginosa [1] = assay: Antibacterial activity against Pseudomonas aeruginosa PAO1 assessed as inhibition of bacterial growth incubated for 24 hrs by serial dilution method; format: functional
Pseudomonas aeruginosa [2] = assay: Antibiofilm activity against Pseudomonas aeruginosa PAO1 assessed as inhibition of biofilm formation incubated for 24 hrs by crystal violet staining based analysis; format: functional, organism-based; conditions: PAO1, 24 h
Pseudomonas aeruginosa [3] = assay: Antibiofilm activity against Pseudomonas aeruginosa PA14 assessed as inhibition of biofilm formation incubated for 24 hrs by crystal violet staining based analysis; format: functional, organism-based; conditions: PA14, 24 h
Pseudomonas aeruginosa [4] = assay: Antibacterial activity against Pseudomonas aeruginosa PAO1 infected in BALB/c mouse wound infection model assessed as bacterial survival rate in wound at 0.5 mg/mL administered to wound once a day for 3 days in dropwise manner; format: functional; conditions: PAO1, 72 h, time 3 day
Pseudomonas aeruginosa [5] = assay: Antibacterial activity against Pseudomonas aeruginosa PAO1 infected in BALB/c mouse wound infection model assessed as reduction in wound area at 0.5 mg/mL administered to wound once a day for 3 days and measured after 9 days in dropwise manner; format: functional; parameters: scale not given: the % may be the effect or the level left; conditions: time 12 day
Pseudomonas aeruginosa [6] = assay: Antibacterial activity against Pseudomonas aeruginosa PAO1 infected in BALB/c mouse wound infection model assessed as reduction in wound area at 0.0025 mg/mL administered to wound once a day for 3 days and measured after 9 days in dropwise manner; format: functional; parameters: scale not given: the % may be the effect or the level left; conditions: time 12 day
Pseudomonas aeruginosa [7] = assay: Antibiofilm activity against Pseudomonas aeruginosa PAO1 assessed as reduction in pFe(III) content incubated for 24 hrs; format: functional

Compound | MIC (Pseudomonas aeruginosa [1]) | IC50 (Pseudomonas aeruginosa [2]) | IC50 (Pseudomonas aeruginosa [3]) | survival at 500 µg/mL (Pseudomonas aeruginosa [4]) | Activity (Pseudomonas aeruginosa [5]) | Activity (Pseudomonas aeruginosa [6]) | Activity (Pseudomonas aeruginosa [7])
CC[C@H]1OC(=O)[C@H](C)[C@@H](O[C@H]2C[C@@](C)(OC)[C@@H](O)[C@H](C)O2)[C@H](C)[C@@H](O[C@@H]2O[C@H](C)C[C@H](N(C)C)[C@H]2O)[C@](C)(O)C[C@@H](C)CN(C)[C@H](C)[C@@H](O)[C@]1(C)O [AZITHROMYCIN] | > 256 µM | 11 µM | 38.5 µM |  |  |  | 
O=C(Cc1ccc(CNC(=O)CNc2nc3cc(Br)ccc3s2)cc1)NO | > 256 µM | 2.48 µM | 6.3 µM |  |  |  | 
O=C(Cn1cc(CNc2nc3ccc(C(F)(F)F)cc3s2)nn1)NO | > 256 µM | 2.03 µM | 5.42 µM |  |  |  | 
O=C(CCCNC(=O)c1nc2ccccc2s1)NO | > 256 µM | 1.89 µM | 4.29 µM |  |  |  | 
CCOc1ccc2nc(NCC(=O)NCc3ccc(CC(=O)NO)cc3)sc2c1 | > 256 µM | 4 µM | 13.4 µM |  |  |  | 
COc1cccc2sc(NCC(=O)NCc3ccc(CC(=O)NO)cc3)nc12 | > 256 µM | 2.85 µM | 7.78 µM |  |  |  | 
O=C(Cn1cc(CNC(=O)c2nc3ccccc3s2)nn1)NO | > 256 µM | 12.8 µM | 24.4 µM |  |  |  | 
NC[C@H]1O[C@H](O[C@H]2[C@H](O)[C@@H](O[C@H]3O[C@H](CO)[C@@H](O)[C@H](N)[C@H]3O)[C@H](N)C[C@@H]2N)[C@H](N)C[C@@H]1O [TOBRAMYCIN] |  |  |  | 0.22% | 36% | 41% | 
COc1ccc2nc(NCc3cn(CC(=O)NO)nn3)sc2c1 | > 256 µM | 1.94 µM | 5.09 µM |  |  |  | 
O=C(Cn1cc(CNc2nc3ccc(Cl)cc3s2)nn1)NO | > 256 µM | 10.2 µM | 17.5 µM |  |  |  | 
O=C(Cc1ccc(CNC(=O)CNc2nc3ccc(C(F)(F)F)cc3s2)cc1)NO | > 256 µM | 3.16 µM | 7.3 µM |  |  |  | 
O=C(CCCCCCNC(=O)c1nc2ccccc2s1)NO | > 256 µM | 14.3 µM | 36.4 µM |  |  |  | 
Cc1c(O)c(=O)ccn1C [DEFERIPRONE] |  |  |  |  |  |  | 20.13
COc1cccc2sc(NCC(=O)Nc3ccc(CC(=O)NO)cc3)nc12 | > 256 µM | 1.42 µM | 3.92 µM |  |  |  | 
O=C(CCCCCNC(=O)c1nc2ccccc2s1)NO | > 256 µM | 10.2 µM | 19.1 µM |  |  |  | 
O=C(Cc1ccc(CNC(=O)CNc2nc3cc(F)ccc3s2)cc1)NO | > 256 µM | 3.17 µM | 7.9 µM |  |  |  | 
Cc1ccc2nc(NCC(=O)Nc3ccc(CC(=O)NO)cc3)sc2c1 | > 256 µM | 1.64 µM | 4.33 µM |  |  |  | 
O=C(NO)c1ccc(CNC(=O)c2nc3ccccc3s2)cc1 | > 256 µM | 3.85 µM | 11.1 µM |  |  |  | 
COc1ccc2nc(NCC(=O)NC3CCC(C(=O)NO)CC3)sc2c1 (centres undefined) | > 256 µM | 6.64 µM | 14.7 µM |  |  |  | 
Cc1ccc2nc(NCC(=O)NCc3ccc(CC(=O)NO)cc3)sc2c1 | > 256 µM | 2.03 µM | 5.6 µM |  |  |  | 
O=C(Cc1ccc(CNC(=O)CNc2nc3ccc(Br)cc3s2)cc1)NO | > 256 µM | 1.17 µM | 2.93 µM |  |  |  | 

Second part, led by results:

MIC (Pseudomonas aeruginosa [1]) | IC50 (Pseudomonas aeruginosa [2]) | IC50 (Pseudomonas aeruginosa [3]) | Compound | survival at 500 µg/mL (Pseudomonas aeruginosa [4]) | Activity (Pseudomonas aeruginosa [5]) | Activity (Pseudomonas aeruginosa [6]) | Activity (Pseudomonas aeruginosa [7])
> 256 µM | 14.8 µM | 30.9 µM | O=C(CCCCNC(=O)CNc1nccs1)NO |  |  |  | 
> 256 µM | 0.51 µM | 1.89 µM | COc1cccc2sc(NCC(=O)NCCCCC(=O)NO)nc12 |  |  |  | 
> 256 µM | 1.6 µM | 3.85 µM | COc1ccc2nc(NCC(=O)NCCCCCC(=O)NO)sc2c1 |  |  |  | 
> 256 µM | 2.05 µM | 5.67 µM | O=C(CCCCNC(=O)CNc1nc2ccc(Cl)cc2s1)NO |  |  |  | 
> 256 µM | 20.9 µM | 36.6 µM | O=C(CCCCCNC(=O)CNc1nc2ccc(Cl)cc2s1)NO |  |  |  | 
> 256 µM | 14.7 µM | 28.9 µM | O=C(CCCCNC(=O)CNc1nc2cc(F)ccc2s1)NO |  |  |  | 
> 256 µM | > 80 µM | > 100 µM | COc1ccc(NCC(=O)NCCCCC(=O)NO)cc1 |  |  |  | 
> 256 µM | 1.72 µM | 4.26 µM | O=C(CCCCNC(=O)CNc1nc2ccc(C(F)(F)F)cc2s1)NO |  |  |  | 
> 256 µM | 0.79 µM | 2.21 µM | Cc1ccc2nc(NCC(=O)NCCCCC(=O)NO)sc2c1 |  |  |  | 
> 256 µM | 7.02 µM | 15 µM | O=C(CCCCNC(=O)CNc1nc2cc(Cl)ccc2s1)NO |  |  |  | 
> 256 µM | 26.9 µM | 54.5 µM | COc1ccccc1NCC(=O)NCCCCC(=O)NO |  |  |  | 
> 256 µM | 3.67 µM | 11.7 µM | O=C(CCCCCNC(=O)CNc1nc2ccc(C(F)(F)F)cc2s1)NO |  |  |  | 
> 256 µM | 1.58 µM | 4.26 µM | O=C(CCCCCNC(=O)CNc1nc2ccccc2s1)NO |  |  |  | 
> 256 µM | > 80 µM | > 100 µM | O=C(CCCCNC(=O)CNc1ccccc1)NO |  |  |  | 
> 256 µM | 3.33 µM | 7.02 µM | O=C(CCCCNC(=O)CNc1nc2ccccc2s1)NO |  |  |  | 
> 256 µM | 5.15 µM | 15.2 µM | COc1ccc2nc(NCC(=O)NCCCC(=O)NO)sc2c1 |  |  |  | 
> 256 µM | 13.6 µM | 24.4 µM | O=C(CCCCCCNC(=O)CNc1nc2ccc(Cl)cc2s1)NO |  |  |  | 
> 256 µM | 8.77 µM | 14 µM | O=C(CCCCCCNC(=O)CNc1nc2ccccc2s1)NO |  |  |  | 
> 256 µM | 14.7 µM | 18.4 µM | COC(=O)CCCCNC(=O)CNc1nc2ccc(OC)cc2s1 |  |  |  | 
> 256 µM | > 80 µM | > 100 µM | COc1cccc(NCC(=O)NCCCCC(=O)NO)c1 |  |  |  | 
> 256 µM | 6.23 µM | 15.6 µM | COc1ccc2nc(NCC(=O)NCc3ccc(CC(=O)NO)cc3)sc2c1 |  |  |  | 
> 256 µM | 2.01 µM | 5.26 µM | O=C(CCCCNC(=O)CNc1nc2ccc(F)cc2s1)NO |  |  |  | 
> 256 µM | 1.29 µM | 3.41 µM | COc1ccc2sc(NCC(=O)NCCCCC(=O)NO)nc2c1 |  |  |  | 
> 256 µM | 1.49 µM | 4.49 µM | O=C(CCCCNC(=O)CNc1nc2ccc(Br)cc2s1)NO |  |  |  | 
> 256 µM | > 80 µM | > 100 µM | COc1ccc2nc(NCC(=O)NCCCCN)sc2c1 |  |  |  | 
> 256 µM | 3.25 µM | 6.65 µM | O=C(CCCCCCNC(=O)CNc1nc2ccc(C(F)(F)F)cc2s1)NO |  |  |  | 
